Patent US8039453B2, “Vinca derivatives” (priority 2006, dated 2011)
Read-outs that look alike come from different tables or passages of the source.

System: HeLa S-3 human cervical carcinoma cell line
Assay: HeLa GI50 determination (SRB growth inhibition)
Assay type: cell-based
Conditions: HeLa S3, 48 h, read-out: HeLa Cells GI50
Procedure: A. HeLa GI50 Determinations
Growth inhibition (GI50) values were measured on the human cervical carcinoma cell line, HeLa S-3, which were selected for growth on plastic. The HeLa cell assay was based on the description of Skehan et al., J. Natl. Cancer Inst., 82:1107-12 (1990), which is hereby incorporated by reference in its entirety. HeLa cells were plated at 2×10^4 cells/well in 96 well plates. One day later, a control plate was fixed by the addition of TCA to 5%. After five rinses with tap water, the plate was air-dried and stored at 4° C. Test compounds were added to the remaining plates at 10-fold dilutions. Two days later, all plates were fixed as described above. Cells were then stained by the addition of 100 μL per well of 0.4% sulforhodamine B (SRB) in 1% acetic acid for 30 min at 4° C. Wells were then quickly rinsed 5× with 1% acetic acid and allowed to air dry. The SRB was then solubilized by the addition of 100 μL per well of unbuffered 10 mM Tris base. Dye was quantified by measuring absorbance at 490 nm on a Molecular Devices microplate reader. Growth inhibition was calculated according to the following equation: GI=100×(T−T0)/(C−T0), where the optical density (OD) of the test well after 2 days of treatment was T, the OD of the wells in the control plate on day 0 was T0 and C was the OD of untreated wells. Plots of percent growth inhibition versus inhibitor concentration were used to determine the GI50.

[1] = HeLa S-3 cells, 2 days of treatment, sulforhodamine B staining

Structure (SMILES)	GI50 [1]	GI50
CCc1ccc2[nH]c3c(c2c1)CCN1CC(C(C)(F)F)C[C@@H](C1)C[C@]3(C(=O)OC)c1cc2c(cc1OC)N(C)[C@H]1[C@@](O)(C(=O)OC)[C@H](OC(C)=O)[C@]3(CC)C=CCN4CC[C@]21[C@@H]43 (stereo partly drawn) [Example 3, 12′-Ethyl-4′-deoxy-20′,20′-diflurovincaleukoblastine]	> 1000 nM	
CC[C@]12C=CCN3CC[C@@]4(c5cc([C@@]6(C(=O)OC)C[C@H]7CC(C(C)(F)F)CN(CCc8c6[nH]c6ccc(-c9ccccc9)cc86)C7)c(OC)cc5N(C)[C@H]4[C@@](O)(C(=O)OC)[C@@H]1OC(C)=O)[C@@H]32 (stereo partly drawn) [Example 6, 12′-Phenyl-4′-deoxy-20′,20′-diflurovincaleukoblastine]		23100 nM
CC[C@]12C=CCN3CC[C@@]4(c5cc([C@@]6(C(=O)OC)C[C@H]7CC(C(C)(F)F)CN(CCc8c6[nH]c6ccc(SC)cc86)C7)c(OC)cc5N(C)[C@H]4[C@@](O)(C(=O)OC)[C@@H]1OC(C)=O)[C@@H]32 (stereo partly drawn) [Example 12, 12′-(Methylsulfanyl)-4′-deoxy-20′,20′-diflurovincaleukoblastine]	93 nM	
